One assay has as its target β1 adrenoceptors (Homo sapiens, UniProt P08588). The assay is described as follows: Radioligand binding assay. The protocol: (§1) The activity of nepicastat at twelve selected enzymes and receptors was determined using established assays. Details of individual receptor radioligand binding assays can be found in Wong et al (1993). Binding data were analyzed by iterative curve-fitting to a four parameter logistic equation. Ki values were calculated from IC50 values using the Cheng-Prusoff equation. Enzyme inhibitory activity was expressed as IC50 (concentration required to produce 50% inhibition of enzyme activity). Male SHRs (15-16 weeks old, Charles River, Wilmington, Mass., USA) were used in the study. On the day of the study, animals were weighed and randomly assigned to be dosed with either vehicle (control) or the appropriate dose of nepicastat (3, 10, 30 or 100 mg.kg^−1, po) or (R)-5-Aminomethyl-1-(5,7-difluoro-1,2,3,4-tetrahydronaphth-2-yl)-2,3-dihydro-2-thioxo-1H-imidazole hydrochloride (30 mg.kg^−1, po) three consecutive times, twelve hours apart. At six hours after the third dose, the rats were anaesthetized with halothane, decapitated and tissues (cerebral cortex, mesenteric artery and left ventricle) were rapidly harvested, weighed, placed in iced perchloric acid (0.4 M), frozen in liquid nitrogen and stored at −70° C. until subsequent analysis. To quantify noradrenaline and dopamine concentrations, tissues were homogenized by brief sonication and centrifuged at 13,000 rpm for 30 minutes at 4° C. The supernatant, spiked with 3,4-dihydroxybenzylamine (internal standard), was assayed for noradrenaline and dopamine by HPLC using electrochemical detection.
(§2) In vitro assay of selected enzymes and neurotransmitter receptors. The activity of 2a at eleven different enzymes was determined using established assays (PanLabs Inc, Foster City, Calif.). The affinity of 2a for thirteen selected receptors was determined by radioligand binding assays using standard filtration techniques and membrane preparations. Binding data were analyzed by iterative curve fitting to a four parameter logistic equation. Ki values were calculated using the Cheng-Prusoff equation.

The target of the next assay is β2 adrenoceptors (Homo sapiens, UniProt P07550). Briefly: Radioligand binding assay. As to the method: as §1, §2
Chain of β2 adrenoceptors (P07550 whole entry): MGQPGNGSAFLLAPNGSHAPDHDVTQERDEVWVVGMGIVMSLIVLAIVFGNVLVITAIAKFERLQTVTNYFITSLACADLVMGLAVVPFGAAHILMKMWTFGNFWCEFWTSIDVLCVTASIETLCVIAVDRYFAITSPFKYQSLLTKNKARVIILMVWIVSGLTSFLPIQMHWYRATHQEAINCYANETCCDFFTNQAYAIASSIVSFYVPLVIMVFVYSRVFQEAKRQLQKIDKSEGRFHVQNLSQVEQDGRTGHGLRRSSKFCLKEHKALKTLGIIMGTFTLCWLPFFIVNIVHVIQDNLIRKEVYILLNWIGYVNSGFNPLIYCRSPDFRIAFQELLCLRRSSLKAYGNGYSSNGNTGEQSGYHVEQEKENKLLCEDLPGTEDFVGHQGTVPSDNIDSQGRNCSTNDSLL
Another assay has as its target M1 muscarinic receptors (Homo sapiens, UniProt P11229). The assay is described as follows: Radioligand binding assay. As to the method: as §1, §2
In another assay the target is μ opioid receptors (Homo sapiens, UniProt P35372). The assay is described as follows: Radioligand binding assay. As to the method: as §1, §2
Chain of μ opioid receptors (P35372 whole entry): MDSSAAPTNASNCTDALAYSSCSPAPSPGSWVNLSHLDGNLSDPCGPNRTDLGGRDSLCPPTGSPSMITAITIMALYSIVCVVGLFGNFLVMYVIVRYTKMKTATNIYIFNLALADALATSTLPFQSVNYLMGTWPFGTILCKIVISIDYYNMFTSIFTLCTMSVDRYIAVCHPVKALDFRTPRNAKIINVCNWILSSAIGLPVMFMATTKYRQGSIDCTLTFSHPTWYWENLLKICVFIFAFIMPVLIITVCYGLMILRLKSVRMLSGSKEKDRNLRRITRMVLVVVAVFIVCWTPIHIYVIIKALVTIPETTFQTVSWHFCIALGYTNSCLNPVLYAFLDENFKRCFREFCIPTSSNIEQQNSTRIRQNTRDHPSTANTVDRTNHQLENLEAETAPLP
For assay [1], the target named is 5-HT1A serotonin receptors (Homo sapiens, UniProt P08908). Briefly: Radioligand binding assay. The protocol:
as §1, §2

A further assay concerns the target D2 dopamine receptors (Homo sapiens, UniProt P14416). Briefly: Radioligand binding assay. The protocol: as §1, §2
The next assay addresses α2A adrenoceptors (Homo sapiens, UniProt P08913). The assay is described as follows: Radioligand binding assay. As to the method: as §1, §2
Assay [2] deals with 5-HT2C serotonin receptors (Homo sapiens, UniProt P28335). Briefly: Radioligand binding assay. The protocol:
as §1, §2

The target in the next assay is α2B adrenoceptors (Homo sapiens, UniProt P18089). The assay is described as follows: Radioligand binding assay. As to the method: as §1, §2
A further assay concerns the target ⊕1B adrenoceptors (Homo sapiens, UniProt P35368). Briefly: Radioligand binding assay. As to the method: as §1, §2
Another assay addresses D1 dopamine receptors (Homo sapiens, UniProt P21728). The assay is described as follows: Radioligand binding assay. The protocol:
as §1, §2

Assay [3] addresses 5-HT2A serotonin receptors (Homo sapiens, UniProt P28223). The assay is described as follows: Radioligand binding assay. As to the method: as §1, §2
The test system of assay [4] is dopamine and norepinephrine levels. The assay is described as follows: 24 hour time course of tissue catecholamines in SHR after a single oral dose. The assay is classed as in vivo, spontaneously hypertensive rats. As to the method: The purpose of this study was to determine the 24 hours time course of the effects of nepicastat (10 mg/kg) on dopamine and norepinephrine levels in the mesenteric artery following a single oral dose in spontaneously hypertensive rats. Catecholamine levels were measured at 1, 2, 4, 6, 8, 12, 16, and 24 hours after a single oral administration of either nepicastat (10 mg/kg) or vehicle (dH2O; 10 ml/kg).
Sixteen-17 week old, male spontaneous hypertensive rats (SHR) rats weighing 300-400 grams were allowed food and water ad libitum. Animals were weighed and randomly assigned, the afternoon before the study, to one of the following treatment groups (n=9 per group): […] of vehicle (10 ml/kg) to be sacrificed at 1, 2, 4, 6, 8, 12, 16, or 24 hours. nepicastat was synthesized as the hydrochloride salt by the Institute of Organic Chemistry, Syntex Discovery Research and obtained from Syntex Central Compound Inventory. nepicastat was dissolved in vehicle (dH2O) to yield an oral dose that could be administered in repeated volumes of 10 ml/kg. All doses of nepicastat were administered as free base equivalents and prepared the morning of administration. Animals were dosed every […] the morning of sacrifice. At 1, 2, 4, 6, 8, 12, 16 and 24 hours following administration, 9 treated animals and 9 vehicle animals were anesthetized with halothane, decapitated, and the left ventricle and mesenteric artery were rapidly harvested and weighed. The mesenteric artery was put in 0.5 ml of 0.4M perchloric acid in a centrifuge tube and the left ventricle put into an empty cryotube. Both tissues were immediately frozen in liquid nitrogen and stored at −70° C. Mesenteric artery catecholamine levels were determined using HPLC with electrochemical detection. At the time of decapitation, plasma samples were taken by draining blood from the carcass into a tube containing heparin, and centrifuging at 4° C.
Each treatment group was compared to vehicle at each time point. A two way analysis of variance (ANOVA) with effects TRT, HARVEST and their interaction was performed. A one way ANOVA with factor TRT was performed for each harvest time.

Chain of D1 dopamine receptors (P21728 whole entry): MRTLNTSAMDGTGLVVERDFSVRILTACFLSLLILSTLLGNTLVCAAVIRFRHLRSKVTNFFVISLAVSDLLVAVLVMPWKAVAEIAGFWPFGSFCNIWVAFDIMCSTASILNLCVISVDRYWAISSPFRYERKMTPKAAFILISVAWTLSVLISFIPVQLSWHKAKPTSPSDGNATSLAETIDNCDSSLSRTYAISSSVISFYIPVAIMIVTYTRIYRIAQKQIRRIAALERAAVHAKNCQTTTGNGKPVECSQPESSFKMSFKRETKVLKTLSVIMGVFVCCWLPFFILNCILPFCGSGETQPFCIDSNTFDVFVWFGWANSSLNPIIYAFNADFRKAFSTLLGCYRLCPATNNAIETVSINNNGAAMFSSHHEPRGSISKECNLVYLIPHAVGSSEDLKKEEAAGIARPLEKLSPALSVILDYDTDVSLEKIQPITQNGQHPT
Chain of M1 muscarinic receptors (P11229 whole entry): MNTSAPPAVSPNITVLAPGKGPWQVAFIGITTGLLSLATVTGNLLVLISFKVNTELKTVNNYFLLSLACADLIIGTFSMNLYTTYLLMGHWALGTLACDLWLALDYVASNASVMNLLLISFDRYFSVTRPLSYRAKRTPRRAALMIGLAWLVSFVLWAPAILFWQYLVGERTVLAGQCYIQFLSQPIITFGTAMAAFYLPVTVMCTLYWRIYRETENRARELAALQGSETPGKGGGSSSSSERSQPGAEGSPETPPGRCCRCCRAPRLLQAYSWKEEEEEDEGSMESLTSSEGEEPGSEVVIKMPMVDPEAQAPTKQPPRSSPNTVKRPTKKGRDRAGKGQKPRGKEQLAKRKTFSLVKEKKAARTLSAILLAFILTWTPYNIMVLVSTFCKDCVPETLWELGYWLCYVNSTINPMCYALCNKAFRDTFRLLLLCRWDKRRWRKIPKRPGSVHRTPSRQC
Chain of 5-HT2A serotonin receptors (P28223 whole entry): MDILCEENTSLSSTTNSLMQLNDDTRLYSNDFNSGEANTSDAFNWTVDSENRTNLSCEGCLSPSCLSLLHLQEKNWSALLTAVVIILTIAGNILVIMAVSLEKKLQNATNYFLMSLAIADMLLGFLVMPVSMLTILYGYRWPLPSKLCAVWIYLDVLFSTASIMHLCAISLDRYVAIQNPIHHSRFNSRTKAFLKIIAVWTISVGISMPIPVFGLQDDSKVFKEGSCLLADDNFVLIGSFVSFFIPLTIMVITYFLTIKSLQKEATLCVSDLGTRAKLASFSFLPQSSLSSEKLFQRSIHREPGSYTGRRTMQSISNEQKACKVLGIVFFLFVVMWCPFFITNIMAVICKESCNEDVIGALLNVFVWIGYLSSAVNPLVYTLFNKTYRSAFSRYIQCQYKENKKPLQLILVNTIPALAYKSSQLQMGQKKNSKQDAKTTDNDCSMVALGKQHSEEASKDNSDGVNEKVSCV
Chain of 5-HT1A serotonin receptors (P08908 whole entry): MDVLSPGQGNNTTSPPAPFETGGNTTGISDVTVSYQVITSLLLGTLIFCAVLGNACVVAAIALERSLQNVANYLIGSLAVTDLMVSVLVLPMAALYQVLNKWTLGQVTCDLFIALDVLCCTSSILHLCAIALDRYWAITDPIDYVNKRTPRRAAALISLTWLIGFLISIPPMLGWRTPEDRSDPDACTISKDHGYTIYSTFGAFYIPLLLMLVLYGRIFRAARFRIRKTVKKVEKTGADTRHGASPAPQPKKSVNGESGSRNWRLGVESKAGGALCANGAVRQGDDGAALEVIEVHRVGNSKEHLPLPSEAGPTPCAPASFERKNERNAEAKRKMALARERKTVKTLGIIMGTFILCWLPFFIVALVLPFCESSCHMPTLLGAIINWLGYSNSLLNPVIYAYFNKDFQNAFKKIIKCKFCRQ
Chain of 5-HT2C serotonin receptors (P28335 33-458): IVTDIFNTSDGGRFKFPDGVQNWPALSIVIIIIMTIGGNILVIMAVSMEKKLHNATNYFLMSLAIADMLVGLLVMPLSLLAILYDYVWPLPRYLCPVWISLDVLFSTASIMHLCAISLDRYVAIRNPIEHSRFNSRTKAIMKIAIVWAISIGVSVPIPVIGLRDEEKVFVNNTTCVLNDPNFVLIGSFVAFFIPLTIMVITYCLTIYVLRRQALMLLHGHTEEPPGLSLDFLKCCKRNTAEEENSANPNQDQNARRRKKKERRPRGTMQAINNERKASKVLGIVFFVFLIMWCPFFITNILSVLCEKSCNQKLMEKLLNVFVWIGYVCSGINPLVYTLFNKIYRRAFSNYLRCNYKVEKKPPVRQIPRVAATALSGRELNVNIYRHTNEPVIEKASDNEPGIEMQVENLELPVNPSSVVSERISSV
Chain of β1 adrenoceptors (P08588 whole entry): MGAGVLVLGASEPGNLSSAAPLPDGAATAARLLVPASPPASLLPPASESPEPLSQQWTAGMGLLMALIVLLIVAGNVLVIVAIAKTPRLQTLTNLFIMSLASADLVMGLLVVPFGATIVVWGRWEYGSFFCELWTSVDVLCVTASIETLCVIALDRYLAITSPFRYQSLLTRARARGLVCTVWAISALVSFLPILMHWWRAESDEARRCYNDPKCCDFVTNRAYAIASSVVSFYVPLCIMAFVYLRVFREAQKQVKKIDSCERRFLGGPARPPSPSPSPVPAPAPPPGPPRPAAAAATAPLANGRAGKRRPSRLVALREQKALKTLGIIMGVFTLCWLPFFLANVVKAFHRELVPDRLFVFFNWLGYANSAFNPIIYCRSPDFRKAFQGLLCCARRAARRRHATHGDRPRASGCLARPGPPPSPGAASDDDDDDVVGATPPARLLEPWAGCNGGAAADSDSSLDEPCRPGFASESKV
Chain of α2A adrenoceptors (P08913 whole entry): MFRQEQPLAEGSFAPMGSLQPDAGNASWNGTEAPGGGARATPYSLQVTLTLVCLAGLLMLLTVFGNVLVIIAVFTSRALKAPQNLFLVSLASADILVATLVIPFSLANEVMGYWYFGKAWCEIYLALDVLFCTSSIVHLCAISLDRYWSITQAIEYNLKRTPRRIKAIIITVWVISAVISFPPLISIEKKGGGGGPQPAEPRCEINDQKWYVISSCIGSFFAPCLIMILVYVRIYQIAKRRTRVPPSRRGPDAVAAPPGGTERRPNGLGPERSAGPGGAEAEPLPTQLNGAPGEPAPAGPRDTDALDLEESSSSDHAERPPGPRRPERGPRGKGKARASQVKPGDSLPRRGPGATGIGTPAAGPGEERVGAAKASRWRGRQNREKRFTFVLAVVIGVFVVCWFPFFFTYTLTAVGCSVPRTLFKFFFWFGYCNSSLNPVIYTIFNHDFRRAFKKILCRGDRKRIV
Chain of D2 dopamine receptors (P14416 whole entry): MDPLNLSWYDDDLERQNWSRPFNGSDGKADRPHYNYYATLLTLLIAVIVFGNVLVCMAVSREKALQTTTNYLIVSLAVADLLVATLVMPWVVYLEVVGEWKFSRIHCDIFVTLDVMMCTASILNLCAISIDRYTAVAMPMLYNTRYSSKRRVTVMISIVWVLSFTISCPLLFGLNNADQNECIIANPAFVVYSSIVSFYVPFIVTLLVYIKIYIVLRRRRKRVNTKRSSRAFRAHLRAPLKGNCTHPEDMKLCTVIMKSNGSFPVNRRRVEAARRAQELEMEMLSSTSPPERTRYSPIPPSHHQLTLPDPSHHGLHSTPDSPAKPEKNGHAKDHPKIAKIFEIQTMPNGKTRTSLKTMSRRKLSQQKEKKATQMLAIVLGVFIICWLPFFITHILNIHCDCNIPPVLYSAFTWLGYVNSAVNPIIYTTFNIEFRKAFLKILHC
Chain of ⊕1B adrenoceptors (P35368 whole entry): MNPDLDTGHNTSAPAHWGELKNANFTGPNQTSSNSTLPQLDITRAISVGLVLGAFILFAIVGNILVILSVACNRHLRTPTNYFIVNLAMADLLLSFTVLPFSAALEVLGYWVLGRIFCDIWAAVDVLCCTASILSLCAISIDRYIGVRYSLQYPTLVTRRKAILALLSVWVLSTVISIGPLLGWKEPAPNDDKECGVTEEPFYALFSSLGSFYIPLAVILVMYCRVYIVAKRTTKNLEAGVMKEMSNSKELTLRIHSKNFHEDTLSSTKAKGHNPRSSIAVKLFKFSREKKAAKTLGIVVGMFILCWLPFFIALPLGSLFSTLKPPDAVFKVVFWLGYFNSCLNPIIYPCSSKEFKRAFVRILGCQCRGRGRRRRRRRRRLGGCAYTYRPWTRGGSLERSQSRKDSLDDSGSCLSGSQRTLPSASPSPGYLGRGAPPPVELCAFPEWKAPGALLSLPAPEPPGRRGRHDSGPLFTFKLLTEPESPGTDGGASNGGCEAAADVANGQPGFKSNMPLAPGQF

Usually Ki stands for a dissociation constant, usually derived from enzyme kinetics or from competition with a known ligand. Lower therefore signals tighter binding. Turning to `Cl.NCc1c[nH]c(=S)n1[C@H]1CCc2c(F)cc(F)cc2C1` [nepicastat, (S)-5-Aminomethyl-1-(5,7-difluoro-1,2,3,4-tetrahydronaphth-2-yl)-2,3-dihydro-2-thioxo-1H-imidazole hydrochloride], the Ki (at β1 adrenoceptors; on β2 adrenoceptors; on M1 muscarinic receptors; at μ opioid receptors; in assay [1]; on D2 dopamine receptors) was over 10 µM in each case. Moreover, the Ki (on α2A adrenoceptors; in [2]; at α2B adrenoceptors; on ⊕1B adrenoceptors; at D1 dopamine receptors; in assay [3]) was over 10 µM in each case. Besides, the “duration of increase in dopamine/norepinephrine ratio” value in assay [4] (10 mg/kg oral, mesenteric artery) was 12 h; in assay [4] (30 mg/kg oral, left ventricle) it was 24 h. Also, the “dopamine vs vehicle, mesenteric artery” value in [4] (10 mg/kg single oral, 1-24 h) is “significantly (p<0.05) higher than those of vehicle at the 2 and 6 hr harvest times”. Also, the “dopamine/norepinephrine ratio vs vehicle, mesenteric artery” value in assay [4] (10 mg/kg single oral, 1-24 h) was “significantly (p<0.05) greater than those of vehicle treated animals at the 1, 2, 4, 6 and 12 hour time points”. The “norepinephrine vs vehicle, mesenteric artery” value in assay [4] (10 mg/kg single oral, 1-24 h) is listed as “significantly (p<0.05) lower than vehicle only at the 4 hr time point”.

For the origin of these results see patent US20090054403A1, “Treatment of Post-Traumatic Stress Disorder” (priority 2007, published 2009).
